According to patent publication US12077503B2, “Substituted cyclic amides and their use as herbicides” (FMC CORPORATION, priority 2015, dated 2024):

Experiments:
Type in all cases: in vivo
[1] = system: barnyardgrass (Echinochloa crus-galli); assay: Test A preemergence; conditions: Echinochloa crus-galli, pre-emergence, 240 h; for pest or weed control at 125 g/ha: 125 g ai/ha, preemergence, 0 to 100 scale where 0 is no effect and 100 is complete control, read-out: Barnyardgrass plant response rating; for pest or weed control at 500 g/ha: 500 g ai/ha, Preemergence, visual injury vs untreated controls after approximately 10 d, read-out: Barnyardgrass plant response rating (0 to 100 scale where 0 is no effect and 100 is complete control)
Method in brief: (§1)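 Treatment is preemergence as a directed soil spray after planting, or postemergence at the one- to two-leaf stage, with test chemical in a non-phytotoxic solvent mixture plus surfactant. Plants stay in the greenhouse about 10 d before visual injury scoring on a 0 to 100 scale versus untreated controls.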

[2] = system: pigweed (Amaranthus retroflexus); assay: Test A preemergence; conditions: Amaranthus retroflexus, pre-emergence, 240 h; for pest or weed control at 125 g/ha: 125 g ai/ha, preemergence, 0 to 100 scale where 0 is no effect and 100 is complete control, read-out: Pigweed plant response rating; for pest or weed control at 500 g/ha: 500 g ai/ha, Preemergence, visual injury vs untreated controls after approximately 10 d, read-out: Pigweed plant response rating (0 to 100 scale where 0 is no effect and 100 is complete control)
[3] = system: ragweed (common ragweed, Ambrosia elatior); assay: Test A preemergence; conditions: Ambrosia artemisiifolia, pre-emergence, 240 h; for pest or weed control at 125 g/ha: 125 g ai/ha, preemergence, 0 to 100 scale where 0 is no effect and 100 is complete control, read-out: Ragweed plant response rating; for pest or weed control at 500 g/ha: 500 g ai/ha, Preemergence, visual injury vs untreated controls after approximately 10 d, read-out: Ragweed plant response rating (0 to 100 scale where 0 is no effect and 100 is complete control)
Method in brief: as §1

[4] = system: giant foxtail (Setaria faberii); assay: Test A preemergence; conditions: Setaria faberi, pre-emergence, 240 h; for pest or weed control at 125 g/ha: 125 g ai/ha, preemergence, 0 to 100 scale where 0 is no effect and 100 is complete control, read-out: Foxtail, Giant plant response rating; for pest or weed control at 500 g/ha: 500 g ai/ha, Preemergence, visual injury vs untreated controls after approximately 10 d, read-out: Foxtail, Giant plant response rating (0 to 100 scale where 0 is no effect and 100 is complete control)
Method in brief: as §1

[5] = system: Kochia (Kochia scoparia); assay: Test A preemergence; conditions: Bassia scoparia, pre-emergence, 240 h; for pest or weed control at 125 g/ha: 125 g ai/ha, preemergence, 0 to 100 scale where 0 is no effect and 100 is complete control, read-out: Kochia plant response rating; for pest or weed control at 500 g/ha: 500 g ai/ha, Preemergence, visual injury vs untreated controls after approximately 10 d, read-out: Kochia plant response rating (0 to 100 scale where 0 is no effect and 100 is complete control)
Method in brief: as §1

[6] = system: ryegrass, Italian (Italian ryegrass, Lolium multiflorum); assay: Test A preemergence; conditions: Lolium multiflorum, pre-emergence, 240 h; for pest or weed control at 125 g/ha: 125 g ai/ha, preemergence, 0 to 100 scale where 0 is no effect and 100 is complete control, read-out: Ryegrass, Italian plant response rating; for pest or weed control at 500 g/ha: 500 g ai/ha, Preemergence, visual injury vs untreated controls after approximately 10 d, read-out: Ryegrass, Italian plant response rating (0 to 100 scale where 0 is no effect and 100 is complete control)
Method in brief: as §1

[7] = system: barnyardgrass (Echinochloa crus-galli); assay: Test A postemergence; conditions: Echinochloa crus-galli, post-emergence, 240 h, 125 g ai/ha, postemergence, visual injury rating after approximately 10 d; read-out: Barnyardgrass plant response rating (0 to 100 scale, 0 no effect, 100 complete control)
Method in brief: as §1

[8] = system: pigweed (Amaranthus retroflexus); assay: Test A postemergence; conditions: Amaranthus retroflexus, post-emergence, 240 h, 125 g ai/ha, postemergence, visual injury rating after approximately 10 d; read-out: Pigweed plant response rating (0 to 100 scale, 0 no effect, 100 complete control)
Method in brief: as §1

[9] = system: ragweed (common ragweed, Ambrosia elatior); assay: Test A postemergence; conditions: Ambrosia artemisiifolia, post-emergence, 240 h, 125 g ai/ha, postemergence, visual injury rating after approximately 10 d; read-out: Ragweed plant response rating (0 to 100 scale, 0 no effect, 100 complete control)
Method in brief: as §1

[10] = system: giant foxtail (Setaria faberii); assay: Test A postemergence; conditions: Setaria faberi, post-emergence, 240 h, 125 g ai/ha, postemergence, visual injury rating after approximately 10 d; read-out: Foxtail, Giant plant response rating (0 to 100 scale, 0 no effect, 100 complete control)
Method in brief: as §1

[11] = system: wheat (Triticum aestivum); assay: Test A postemergence; conditions: Triticum aestivum, post-emergence, 240 h, 125 g ai/ha, postemergence, visual injury rating after approximately 10 d; read-out: Wheat plant response rating (0 to 100 scale, 0 no effect, 100 complete control)
Method in brief: as §1

[12] = system: Kochia (Kochia scoparia); assay: Test A postemergence; conditions: Bassia scoparia, post-emergence, 240 h, 125 g ai/ha, postemergence, visual injury rating after approximately 10 d; read-out: Kochia plant response rating (0 to 100 scale, 0 no effect, 100 complete control)
Method in brief: as §1

[13] = system: Galium (catchweed bedstraw, Galium aparine); assay: Test A postemergence; conditions: Galium, post-emergence, 240 h, 125 g ai/ha, postemergence, visual injury rating after approximately 10 d; read-out: Galium plant response rating (0 to 100 scale, 0 no effect, 100 complete control)
Method in brief: as §1

[14] = system: corn (Zea mays); assay: Test A postemergence; conditions: Zea mays, post-emergence, 240 h, 125 g ai/ha, postemergence, visual injury rating after approximately 10 d; read-out: Corn plant response rating (0 to 100 scale, 0 no effect, 100 complete control)
Method in brief: as §1

[15] = system: ryegrass, Italian (Italian ryegrass, Lolium multiflorum); assay: Test A postemergence; conditions: Lolium multiflorum, post-emergence, 240 h, 125 g ai/ha, postemergence, visual injury rating after approximately 10 d; read-out: Ryegrass, Italian plant response rating (0 to 100 scale, 0 no effect, 100 complete control)
Method in brief: as §1

[16] = system: blackgrass (Alopecurus myosuroides); assay: Test A postemergence; conditions: Alopecurus myosuroides, post-emergence, 240 h, 125 g ai/ha, postemergence, visual injury rating after approximately 10 d; read-out: Blackgrass plant response rating (0 to 100 scale, 0 no effect, 100 complete control)
Method in brief: as §1

| Compound | pest or weed control at 125 g/ha [1] [%] | pest or weed control at 500 g/ha [1] [%] | pest or weed control at 125 g/ha [2] [%] | pest or weed control at 500 g/ha [2] [%] | pest or weed control at 125 g/ha [3] [%] | pest or weed control at 500 g/ha [3] [%] | pest or weed control at 125 g/ha [4] [%] | pest or weed control at 500 g/ha [4] [%] | pest or weed control at 125 g/ha [5] [%] | pest or weed control at 500 g/ha [5] [%] | pest or weed control at 125 g/ha [6] [%] | pest or weed control at 500 g/ha [6] [%] | pest or weed control at 125 g/ha [7] [%] | pest or weed control at 125 g/ha [8] [%] | pest or weed control at 125 g/ha [9] [%] | pest or weed control at 125 g/ha [10] [%] | plant injury at 125 g/ha [11] [%] | pest or weed control at 125 g/ha [12] [%] | pest or weed control at 125 g/ha [13] [%] | plant injury at 125 g/ha [14] [%] | other results |
| --- | --- | --- | --- | --- | --- | --- | --- | --- | --- | --- | --- | --- | --- | --- | --- | --- | --- | --- | --- | --- | --- |
| Cc1cc(C)cc([C@H]2CNC(=O)[C@@H]2C(=O)Nc2ccccc2C(F)(F)F)c1 [Compound 909] | 70 | 80 | 0 | 0 | 0 | 20 | 90 | 90 | 0 | 50 | 0 | 30 | 50 | 0 | 0 | 40 | 0 | 0 | 0 | 0 | pest or weed control at 125 g/ha [15]: 0%; pest or weed control at 125 g/ha [16]: 0% |
| CSc1ccccc1NC(=O)[C@H]1C(=O)N(C)C[C@@H]1c1cccc(OC(F)(F)C(F)F)c1 [Compound 862] | 90 | 100 | 80 | 90 | 90 | 100 | 90 | 90 | 70 | 70 | 0 | 20 | 30 | 60 | 0 | 60 | 0 | 40 | 60 | 20 | pest or weed control at 125 g/ha [15]: 20%; pest or weed control at 125 g/ha [16]: 0% |
| CC(C)(C)c1ccc([C@H]2CNC(=O)[C@@H]2C(=O)Nc2cccc(F)c2F)cc1 [Compound 847] | 0 | 60 | 0 | 0 | 0 | 0 | 0 | 50 | 0 | 0 | 0 | 0 | 0 | 0 | 0 | 0 | 0 | 0 | 0 | 0 | pest or weed control at 125 g/ha [15]: 0%; pest or weed control at 125 g/ha [16]: 0% |
| COc1cc(C(F)(F)F)ccc1[C@H]1CN(C)C(=O)[C@@H]1C(=O)Nc1ccccc1F [Compound 858] | 90 | 90 | 20 | 50 | 0 | 30 | 90 | 90 | 60 | 70 | 30 | 70 | 80 | 20 | 0 | 80 | 20 | 20 | 30 | 20 | pest or weed control at 125 g/ha [15]: 20%; pest or weed control at 125 g/ha [16]: 0% |
